In US9399626B2, “2-thiopyrimidinones” (Pfizer Inc., priority 2011, dated 2016):

Target: T1, MPO (purified from human polynuclear leukocytes) (Homo sapiens, UniProt P05164)
T1 construct: purified from human polynuclear leukocytes; purchased Calbiochem/EMD Biosciences; host or cells: human polynuclear leukocytes (natural source)
Assay: MPO Amplex Red Activity Assay
Assay type: biochemical
Conditions: Table 1A, 2 μM H2O2, pH 7.4
Summary of the method: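 Human leukocyte MPO […] oxidises 30 μM Amplex Red with 2 μM H2O2 in 50 mM NaPi pH 7.4, 150 mM NaCl, 1 mM DTPA, 2% DMSO. Resorufin fluorescence (ex 530/em 580 nm) read every 20 s, minus catalase background. kobs from the first 600 s, corrected for auto-inactivation, fit versus [I] for kinact/KI.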

T1 sequence (P05164 279-745 limits assumed): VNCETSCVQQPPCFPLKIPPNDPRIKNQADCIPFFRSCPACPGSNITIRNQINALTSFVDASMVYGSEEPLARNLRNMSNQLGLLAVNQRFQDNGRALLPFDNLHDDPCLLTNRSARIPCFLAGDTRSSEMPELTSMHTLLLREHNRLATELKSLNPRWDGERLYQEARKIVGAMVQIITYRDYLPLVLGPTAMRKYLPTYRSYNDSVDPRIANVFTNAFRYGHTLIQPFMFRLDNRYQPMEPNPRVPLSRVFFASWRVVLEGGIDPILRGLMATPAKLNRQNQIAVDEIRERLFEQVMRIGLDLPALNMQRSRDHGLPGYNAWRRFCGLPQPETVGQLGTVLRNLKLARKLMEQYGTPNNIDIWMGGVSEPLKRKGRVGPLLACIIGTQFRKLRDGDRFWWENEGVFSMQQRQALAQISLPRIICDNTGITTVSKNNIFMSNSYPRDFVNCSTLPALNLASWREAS
T1 sequence (P05164 165-273 limits assumed): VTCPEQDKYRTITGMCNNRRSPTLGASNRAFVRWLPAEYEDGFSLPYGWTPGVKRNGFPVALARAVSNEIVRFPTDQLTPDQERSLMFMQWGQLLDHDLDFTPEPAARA

| Structure (SMILES) | MPO kinact/Ki |
| --- | --- |
| NC(=O)Cn1c(-c2cccc3c2OCCO3)cc(=O)[nH]c1=S [Example 363, 2-[6-(2,3-dihydro-1,4-benzodioxin-5-yl)-4-oxo-2-thioxo-3,4-dihydropyrimidin-1(2H)-yl]acetamide] | 9680 1/s per M |
| NC(=O)Cn1c(-c2cccc3c2OCC3)cc(=O)[nH]c1=S [Example 364, 2-[6-(2,3-dihydro-1-benzofuran-7-yl)-4-oxo-2-thioxo-3,4-dihydropyrimidin-1(2H)-yl]acetamide] | 6580 1/s per M |
| CSc1ccccc1-c1cc(=O)[nH]c(=S)n1CC(N)=O [Example 365, 2-{6-[2-(methylsulfanyl)phenyl]-4-oxo-2-thioxo-3,4-dihydropyrimidin-1(2H)yl}acetamide] | 9290 1/s per M |
| O=c1cc(-c2ccccc2O)n(CCO)c(=S)[nH]1 [Example 366, 1-(2-hydroxyethyl)-6-(2-hydroxyphenyl)-2-thioxo-2,3-dihydropyrimidin-4(1H)-one] | 13600 1/s per M |
| NC(=O)Cn1c(-c2cccc3ncccc23)cc(=O)[nH]c1=S [Example 367, 2-[4-oxo-6-(quinolin-5-yl)-2-thioxo-3,4-dihydropyrimidin-1(2H)-yl]acetamide] | 1340 1/s per M |
| NC(=O)Cn1c(-c2ccccc2O)cc(=O)[nH]c1=S [Example 368, 2-[6-(2-hydroxyphenyl)-4-oxo-2-thioxo-3,4-dihydropyrimidin-1(2H)-yl]acetamide] | 3270 1/s per M |
| COc1ccc(Cl)cc1-c1cc(=O)[nH]c(=S)n1CC(=O)NCCN [Example 369, N-(2-aminoethyl)-2-[6-(5-chloro-2-methoxyphenyl)-4-oxo-2-thioxo-3,4-dihydropyrimidin-1(2H)-yl]acetamide] | 8040 1/s per M |
| COc1ccc(F)cc1-c1cc(=O)[nH]c(=S)n1CC(=O)NCCN [Example 371, N-(2-aminoethyl)-2-[6-(5-fluoro-2-methoxyphenyl)-4-oxo-2-thioxo-3,4-dihydropyrimidin-1(2H)-yl]acetamide] | 4570 1/s per M |
| COc1ccccc1-c1cc(=O)[nH]c(=S)n1CC(=O)NCCN [Example 372, N-(2-aminoethyl)-2-[6-(2-methoxyphenyl)-4-oxo-2-thioxo-3,4-dihydropyrimidin-1(2H)-yl]acetamide] | 6250 1/s per M |
| COc1ccc(C)cc1-c1cc(=O)[nH]c(=S)n1CC(=O)NCCN [Example 373, N-(2-aminoethyl)-2-[6-(2-methoxy-5-methylphenyl)-4-oxo-2-thioxo-3,4-dihydropyrimidin-1(2H)-yl]acetamide] | 12800 1/s per M |
| CNCCCn1c(-c2cc(F)ccc2OC)cc(=O)[nH]c1=S [Example 374, 6-(5-fluoro-2-methoxyphenyl)-1-[3-(methylamino)propyl]-2-thioxo-2,3-dihydropyrimidin-4(1H)-one] | 4600 1/s per M |
| COc1ccc(F)cc1-c1cc(=O)[nH]c(=S)n1CCCN(C)C(=N)N [Example 375, 1-{3-[6-(5-fluoro-2-methoxyphenyl)-4-oxo-2-thioxo-3,4-dihydropyrimidin-1(2H)yl]propyl}-1-methylguanidine] | 11300 1/s per M |
| COc1ccc(Cl)cc1-c1cc(=O)[nH]c(=S)n1CC(=O)NC(=N)N [Example 376, N-carbamidoyl-2-[6-(5-chloro-2-methoxyphenyl)-4-oxo-2-thioxo-3,4-dihydropyrimidin-1(2H)-yl]acetamide] | 7870 1/s per M |
| NC(=O)Cn1c(-c2cc(Cl)ccc2O)cc(=O)[nH]c1=S [Example 377, 2-[6-(5-chloro-2-hydroxyphenyl)-4-oxo-2-thioxo-3,4-dihydropyrimidin-1(2H)-yl]acetamide] | 8770 1/s per M |
| COc1ccc(OCCO)c(-c2cc(=O)[nH]c(=S)n2CC(=O)NCCN)c1 [Example 378, N-(2-aminoethyl)-2-{6-[2-(2-hydroxyethoxy)-5-methoxyphenyl]-4-oxo-2-thioxo-3,4-dihydropyrimidin-1(2H)-yl}acetamide] | 5040 1/s per M |
| COc1ccc(OCCO)c(-c2cc(=O)[nH]c(=S)n2CCO)c1 [Example 379, 6-[2-(2-hydroxyethoxy)-5-methoxyphenyl]-1-(2-hydroxyethyl)-2-thioxo-2,3-dihydropyrimidin-4(1H)-one] | 7370 1/s per M |
| COc1ccc(OCCO)c(-c2cc(=O)[nH]c(=S)n2CC(N)=O)c1 [Example 380, 2-{6-[2-(2-hydroxyethoxy)-5-methoxyphenyl]-4-oxo-2-thioxo-3,4-dihydropyrimidin-1(2H)-yl}acetamide] | 4470 1/s per M |
| COc1ccc(-c2cc(=O)[nH]c(=S)n2CCNCCN)c(OC)c1 [Example 381, 1-{2-[(2-aminoethyl)amino]ethyl}-6-(2,4-dimethoxyphenyl)-2-thioxo-2,3-dihydropyrimidin-4(1H)-one] | 1970 1/s per M |
| NCCn1c(-c2ccccc2OC(F)(F)F)cc(=O)[nH]c1=S [Example 382, 1-(2-aminoethyl)-2-thioxo-6-[2-(trifluoromethoxy)phenyl]-2,3-dihydropyrimidin-4(1H)-one] | 2310 1/s per M |
| COc1ccc(-c2cc(=O)[nH]c(=S)n2CCNCCO)c(OC)c1 [Example 383, 6-(2,4-dimethoxyphenyl)-1-{2-[(2-hydroxyethyl)amino]ethyl}-2-thioxo-2,3-dihydropyrimidin-4(1H)-one] | 5230 1/s per M |
| COc1cccc(-c2cc(=O)[nH]c(=S)n2CC(N)=O)c1 [Example 384, 2-[6-(3-methoxyphenyl)-4-oxo-2-thioxo-3,4-dihydropyrimidin-1(2H)-yl]acetamide] | 2930 1/s per M |
| COc1cccc(OC)c1-c1cc(=O)[nH]c(=S)n1CC(N)=O [Example 386, 2-[6-(2,6-dimethoxyphenyl)-4-oxo-2-thioxo-3,4-dihydropyrimidin-1(2H)-yl}acetamide] | 4960 1/s per M |
| COc1cc(OCCO)ccc1-c1cc(=O)[nH]c(=S)n1CC(N)=O [Example 387, 2-{6-[4-(2-hydroxyethoxy)-2-methoxyphenyl]-4-oxo-2-thioxo-3,4-dihydropyrimidin-1(2H)-yl}acetamide] | 4720 1/s per M |

Further lines, results first:

| MPO kinact/Ki | Structure (SMILES) |
| --- | --- |
| 9060 1/s per M | COc1ccc(OC)c(-c2cc(=O)[nH]c(=S)n2CC(=O)NCCN)c1 [Example 370, N-(2-aminoethyl)-2-[6-(2,5-dimethoxyphenyl)-4-oxo-2-thioxo-3,4-dihydropyrimidin-1(2H)-yl]acetamide] |
| 3530 1/s per M | COc1ccc(-c2cc(=O)[nH]c(=S)n2CC(=O)NCCO)c(OC)c1 [Example 385, 2-[6-(2,4-dimethoxyphenyl)-4-oxo-2-thioxo-3,4-dihydropyrimidin-1(2H)-yl]-N-(2-hydroxyethyl)acetamide] |
| 8690 1/s per M | COc1ccc(-c2cc(=O)[nH]c(=S)n2CC(=O)N[C@@H]2CCNC2)c(OC)c1 [Example 388, 2-[6-(2,4-dimethoxyphenyl)-4-oxo-2-thioxo-3,4-dihydropyrimidin-1(2H)-yl]-N-[(3R)-pyrrolidin-3-yl]acetamide] |
| 4910 1/s per M | COc1ccc(-c2cc(=O)[nH]c(=S)n2CC(=O)N2CC[C@@H](N)C2)c(OC)c1 [Example 389, 1-{2-[(3R)-3-aminopyrrolidin-1-yl]-2-oxoethyl}-6-(2,4-dimethoxyphenyl)-2-thioxo-2,3-dihydropyrimidin-4(1H)-one] |
| 6250 1/s per M | COc1ccc(-c2cc(=O)[nH]c(=S)n2CC(=O)N(C)CCN)c(OC)c1 [Example 390, N-(2-aminoethyl)-2-[6-(2,4-dimethoxyphenyl)-4-oxo-2-thioxo-3,4-dihydropyrimidin-1(2H)-yl]-N-methylacetamide] |
| 3480 1/s per M | CNCCNC(=O)Cn1c(-c2ccc(OC)cc2OC)cc(=O)[nH]c1=S [Example 391, 2-[6-(2,4-dimethoxyphenyl)-4-oxo-2-thioxo-3,4-dihydropyrimidin-1(2H)-yl]-N-[2-(methylamino)ethyl]acetamide] |
| 5830 1/s per M | COc1ccc(-c2cc(=O)[nH]c(=S)n2CC(=O)NCCN(C)C)c(OC)c1 [Example 392, 2-[6-(2,4-dimethoxyphenyl)-4-oxo-2-thioxo-3,4-dihydropyrimidin-1(2H)-yl]-N-[2-(dimethylamino)ethyl]acetamide] |
| 13600 1/s per M | COc1ccc(-c2cc(=O)[nH]c(=S)n2CC(=O)N[C@H]2CCNC2)c(OC)c1 [Example 393, 2-[6-(2,4-dimethoxyphenyl)-4-oxo-2-thioxo-3,4-dihydropyrimidin-1(2H)-yl]-N-[(3S)-pyrrolidin-3-yl]acetamide] |
| 4020 1/s per M | COc1ccc(-c2cc(=O)[nH]c(=S)n2CC(=O)N[C@@H](C)CN)c(OC)c1 [Example 394, N-[(2S)-1-aminopropan-2-yl]-2-[6-(2,4-dimethoxyphenyl)-4-oxo-2-thioxo-3,4-dihydropyrimidin-1(2H)-yl]acetamide] |
| 6980 1/s per M | COc1ccc(-c2cc(=O)[nH]c(=S)n2CC(=O)NC[C@@H](C)N)c(OC)c1 [Example 395, N-[(2R)-2-aminopropyl]-2-[6-(2,4-dimethoxyphenyl)-4-oxo-2-thioxo-3,4-dihydropyrimidin-1(2H)-yl]acetamide] |
| 10900 1/s per M | COc1ccc(-c2cc(=O)[nH]c(=S)n2CC(=O)NC[C@H](C)N)c(OC)c1 [Example 396, N-[(2S)-2-aminopropyl]-2-[6-(2,4-dimethoxyphenyl)-4-oxo-2-thioxo-3,4-dihydropyrimidin-1(2H)-yl]acetamide] |
| 4050 1/s per M | COc1ccc(-c2cc(=O)[nH]c(=S)n2CC(=O)N2CCNCC2)c(OC)c1 [Example 397, 6-(2,4-dimethoxyphenyl)-1-[2-oxo-2-(piperazin-1-yl)ethyl]-2-thioxo-2,3-dihydropyrimidin-4(1H)-one] |
